This is an account of results in patent US20010046704A1, “Methods and compositions to activate genes in cells” (priority 2000, published 2001).

One test concerns DNA. The note with it: compared with other mutagenic agents; cited from earlier work.
The next test deals with mouse ES stem cells. The experiment in a line: Chemical mutagenesis of cell suspensions, cytotoxicity of the mutagen. The test is classed as cell-based. Conditions: cell suspensions (eg, mouse ES stem cells) exposed to doses as high as 0.4 mg/mL for 2 to 3 hours. The text has this:
In this regard, numerous chemical mutagens have been described and used in the past, as described for instance by Russell et al., Biology of Mammalian Germ Cell Mutagenesis, Cold Spring Harbor Laboratory Press, 1990:271-285; Rinchik E. M., Trends in Genetics, 1991;7(1):15-21; or Marker et al., Genetics, 1997;145(2):435-443. For mutagenesis, cells are preferably treated with increasing amounts of the chemical mutagen(s) either in whole animals or in cell suspensions, to assess the cytotoxicity of the chemical mutagen(s). Typical doses have been described in the literature as cited above. For example, cell suspensions (eg, mouse ES stem cells) are exposed to doses of N-ethyl-N-nitrosourea (ENU) as high as 0.4 mg/mL for 2 to 3 hours, which results in more than 98% of the cells dying. […] Other mutagens include for instance intercalating agents, alkylating agents, strand breaking agents, mismatch-inducing agents, etc.

For the compound `CCN(N=O)C(N)=O` [ENU, N-ethyl-N-nitrosourea], the “efficiency in generating mutations relative to other agents” value in the test on DNA is “at least 10 times”. In the test on mouse ES stem cells, the cells dying result was “more than 98%”.
